Results on 1 compound are retold here after patent US20170217982A1, “Compound isolated from Pseudolysimachion rotundum var. subintegrum, the composition comprising the same for treating allergic disease, inflammatory disease, asthma or chronic obstructive pulmonary disease and the use thereof” (YUNGJIN PHARMACEUTICAL CO., LTD, priority 2014, published 2017).

For this test, the system named is COPD induced mice. Put plainly: Anti-COPD effect in cigarette smoke + LPS COPD mouse model. As to conditions: 10 mg/kg p.o. In kind it is in vivo, C57BL/6N mouse. On the procedure: In order to determine the anti-COPD effect of inventive compounds in COPD animal model, following test was performed by using COPD induced mice as disclosed in the literature (Bhaysar, T. et al., J. Chronic Obstr. […]. Dis., 2008, 3, 477-481). Specific pathogen-free male C57BL/6N mouse (about 22-24 g), aged 6 weeks, which were routinely screened serologically for relevant respiratory pathogens, were purchased from Koatech Co. (koatech.co.kr, Seoul, Korea) and bred allowing to access freely to feed (antibiotic free, Samyang Oil & Feed Corp., Korea) and water in breeding room controlling the temperature of 22±2° C., and humidity of 55±15% at the light-dark cycle for 12 hours and acclimated with the experimental environment for 1 week. 2 kinds of test samples, […] ingredient: Roflumilast, 10 mg/kg) were dissolved in 0.5% sodium carboxymethyl cellulose ([…], Sigma-Aldrich, USA) and used as test samples. KS534, and Rolflumilast (ROF 11-492, HETERO, India) were orally administrated to the mice, 1 hour before prior the intratracheal instillation (i.t.). 3R4F Kentuchy Reference Cigarettes ([…], USA) was used as a standard cigarette for generating a cigarette smoke. The cigarette containing 9.4 mg of tar, 11 mg of TPM (total particle matter) and 12 mg of carbon monooxide per piece, was used after harmonizing with the temperature of 22±1° C. and humidity of 60±2% after opening for 48-72 hrs. The exposure of cigarette smoke was performed by using a cigarette smoke generator (DBL Co. Ltd., dhbiolink.com, Korea). The mice were divided into five groups: normal (NC), COPD (cigarette smoke with LPS intranasal instillation), Rof (10 mg/kg of roflumilast, p.o.+cigarette smoke with LPS intranasal instillation), and KS534-15 and 30 (15 mg/kg and 30 mg/kg of KS534, p.o.+cigarette smoke with LPS instillation, respectively). Exposure of cigarette smoke (one puff/min, 35 ml puff volume over 2 s, every 60 s, 8 cigarettes per day) was conducted using a cigarette smoke generator. The mice received 1 h of cigarette smoke exposure in an exposure chamber (50 cm×30 cm×30 cm) for 3 days. Roflumilast and piscroside C were administered to mice by oral lavage 1 h before cigarette smoke exposure for 3 days. LPS was intranasally instilled ([…] dissolved in 50 μL distilled water) under anesthesia 1 h after the final exposure to cigarette smoke. After the end of experiment, the blood, BALF, and pneumonocyte of each rat were isolated and collected to test. After finishing the experiment, rats were anaesthetized with Zoleti150 (3VX9, Virbac, France, p.o) and the blood was delivered through caudal veins. In order to isolate BALF from lung, the bronchus of right lung was ligated with suture and then performed to tracheostomy. IV-use catheter (16 GA, 3S-Cath, Dukwoo, Korea) was put into the bronchus, and both of bronchus and catheter (16 GA, 3S-Cath, Dukwoo, Korea) were fixed with suture. The injector containing 1 ml of DPBS 0.7 (Dubecco's phosphate-buffered saline, Invitrogen, USA) was connected thereto and DPBS was forced to circulate three times to isolate BALF. The right lung ligated with suture was isolated, fixed with 10% neutral formalin solution, and the remaining lung tissue was reserved in refrigerator at -70° C. The isolated BALF was centrifuged for 15 mins at 1500 rpm to prepare cell pellet and the supernatant was reserved in refrigerator at -70° C. for cytokine analysis. The cell pellet was suspended in DPBS, and the cell was attached to a slide glass using by cytospin centrifuge (CS03270047, Hanil, Korea). Diff-Quik staining (ZS1003, Sysmex, Japan) was performed and the cell was observed by optical microscopy (DM1000, Leica, German) to count the number of immunocyte in each test sample. The level of ROS in BALF isolated from the mice was determined by DCF-DA (dihydrodo chloro fluoresce indiacetate, 35854, Sigma-Aldrich, USA) and the final concentration of DCF-DA was adjusted to 20 μm in 200 μL to incubate 30 mins. […]

`O=C(Nc1c(Cl)cncc1Cl)c1ccc(OC(F)F)c(OCC2CC2)c1` [Roflumilast, reference compound]: under “COPD mice”, the “level of proteins in BALF compared with COPD induced group” value is reported as “significant reduction”, the “reduced level of ROS in BALF comparing with COPD induced group” value is on record as “about 22.2%” and the “reduced level of neutrophils in BALF comparing with COPD induced group” value is reported as “about 21.1%”. Further, the “invasion of the inflamed cells in lung tissue (histology)” value (COPD mice (FIG. 14)) is “significantly reduced”. Where the note is “COPD mice, ELISA”, the “level of IL-6 in BALF compared with COPD induced group” value is “significant reduction” and the “level of TNF-alpha in BALF compared with COPD induced group” value is recorded as “significant reduction”.
